# Experimental data from patent US5948931A (priority 1997, dated 1999).
# Structures can show the parent of a compound that is named as a salt. Where two headings read alike, the source gives them in different places.
# Tests used:
# [1] = Kinetics of hydrolysis of PNHDA, dependence on pH and Ni2+; format: physicochemical; design: K / K': unit not given here
# Protocol: The rates of hydrolysis of p-nitrophenyl(hydroxyimino)-(dihydroxyphosphinyl)acetate (16) were determined with Shimadzu UV-260 spectrophotometer by monitoring appearance of thep-nitrophenol at 400 nm (pH 6-11) and 317 nm (pH 4-5) and disappearance of reactant (16) at 217 nm (pH 4-5). The product spectra were quantitatively identified with those of equivalent concentration of p-nitrophenol under the same conditions. Reaction mixture pH values were measured. at 25 and 50° C. with a Beckman Model 71 pH meter. For non-metal ion-assisted reactions, a few buffer solutions were prepared with EDTA (2×10^-5) as a precaution against trace metal ions in the buffer and salts, but the same results were obtained as with the non-EDTA-containing buffers. Buffers employed were acetate (pH 4.2-5.3), N-ethyl morpholine (pH 6.7-7.8), and borate (pH 8-11). The buffer concentrations were 0.02-0.01 M (no significant catalytic effect). The ionic strength was 0.5-1.0 M, maintained with NaCl.
# To initiate a kinetic run, 50-100 μl of 19 stock solution (0.002 M in H2 O) was injected into 2-3 ml of reactant solution maintained at the desired temperature. The reactions followed pseudo-first-order kinetics for at least 3 half-lives. Kinetic parameters were calculated with a linear least-squares computer program.
# [2] = Stability / hydrolysis-fragmentation of E-16 (anilinium salt E-19) in water; format: physicochemical; settings: for half-life: read-out: t1/2 of decomposition in H2O (converted)
# Protocol: Stability of E-19. These experiments were carried out in 5 mm glass NMR tubes at 22° C., concentration of E-4 0.1% (w/v).
# [3] = Kinetic measurements of hydrolysis (release of p-nitrophenoxide), effect of Mg2+; format: physicochemical; settings: for enhancement of hydrolysis rate by MgCl2 (factor): 0.2 M MgCl2, pH 8.5, 25° C.
# Excerpt: Kinetic Measurements of the Hydrolysis of E-19.
# [4] = Stability of DCHA+ salts 3 heated in different solvents (31P NMR); format: physicochemical; settings: conditions similar to refluxing AN
# Protocol: Stability of DCHA^+ Salts 3 Heated in Different Solvents. 40 mg 3 (E or Z) was heated in 5 ml of alcohol mixture, H2 O or acetonitrile. Reaction progress was monitored by ^31 P NMR spectroscopy.
# [5] = about pH 5-8, preferably about pH 6-7
compound,measurement,setting,value
"O=C(Oc1ccc([N+](=O)[O-])cc1)/C(=N\O)P(=O)(O)O [E-16, p-nitrophenyl (E)-(dihydroxyphosphinyl)(hydroxyimino)acetate]",enhancement of rate by Ni2+ (factor),"[1]; 0.01M Ni2+, pH 4.2",3
same,enhancement of Kobsd by Ni2+ (factor),"[1]; 0.01M Ni2+, pH 6.5",28
same,enhancement of Kobsd by Ni2+ (factor),"[1]; 0.01M Ni2+, pH 7.4",20
same,Ni2+ concentration with saturation effect on Kobsd,[1]; constant pH,7 mM
same,K,"[1]; pH 4.2, Ni = 0.01M, 50° C.",0.015
same,log (k),"[1]; pH 4.2, Ni = 0.01M, 50° C.",-1.824
same,K,"[1]; pH 4.2, no metal ion, 50° C.",0.0049
same,log (k),"[1]; pH 4.2, no metal ion, 50° C.",-2.311
same,K,"[1]; pH 5.2, no metal ion, 50° C.",0.0156
same,K',"[1]; pH 5.2, no metal ion, 50° C.",0.0165
same,log (K'),"[1]; pH 5.2, no metal ion, 50° C.",-1.78
same,log (k),"[1]; pH 5.2, no metal ion, 50° C.",-1.807
same,K,"[1]; pH 6.5, Ni = 0.01M, 50° C.",0.31
same,log (k),"[1]; pH 6.5, Ni = 0.01M, 50° C.",-0.509
same,K,"[1]; pH 6.5, no metal ion, 50° C.",0.011
same,K',"[1]; pH 6.5, no metal ion, 50° C.",0.009
same,log (K'),"[1]; pH 6.5, no metal ion, 50° C.",-2.05
same,log (k),"[1]; pH 6.5, no metal ion, 50° C.",-1.959
same,K,"[1]; pH 7.4, Ni = 0.01M, 50° C.",1.127
same,K',"[1]; pH 7.4, Ni = 0.01M, 50° C.",1.1
same,log (K'),"[1]; pH 7.4, Ni = 0.01M, 50° C.",0.041
same,log (k),"[1]; pH 7.4, Ni = 0.01M, 50° C.",0.052
same,K,"[1]; pH 7.4, no metal ion, 50° C.",0.0563
same,K',"[1]; pH 7.4, no metal ion, 50° C.",0.0605
same,log (K'),"[1]; pH 7.4, no metal ion, 50° C.",-1.22
same,log (k),"[1]; pH 7.4, no metal ion, 50° C.",-1.249
same,K,"[1]; pH 8.5, no metal ion, 25° C.",0.052
same,K',"[1]; pH 8.5, no metal ion, 25° C.",0.05635
same,log (K'),"[1]; pH 8.5, no metal ion, 25° C.",-1.249
same,log (k),"[1]; pH 8.5, no metal ion, 25° C.",-1.288
same,K,"[1]; pH 9, no metal ion, 25° C.",0.101
same,K',"[1]; pH 9, no metal ion, 25° C.",0.101
same,log (K'),"[1]; pH 9, no metal ion, 25° C.",-0.996
same,log (k),"[1]; pH 9, no metal ion, 25° C.",-0.997
same,K,"[1]; pH 9.5, no metal ion, 25° C.",0.33
same,K',"[1]; pH 9.5, no metal ion, 25° C.",0.33
same,log (K'),"[1]; pH 9.5, no metal ion, 25° C.",-0.481
same,log (k),"[1]; pH 9.5, no metal ion, 25° C.",-0.481
same,K,"[1]; pH 10, no metal ion, 25° C.",0.629
same,K',"[1]; pH 10, no metal ion, 25° C.",0.603
same,log (K'),"[1]; pH 10, no metal ion, 25° C.",-0.22
same,log (k),"[1]; pH 10, no metal ion, 25° C.",-0.201
same,K,"[1]; pH 11, no metal ion, 25° C.",1.2
same,K',"[1]; pH 11, no metal ion, 25° C.",1.249
same,log (K'),"[1]; pH 11, no metal ion, 25° C.",0.0966
same,log (k),"[1]; pH 11, no metal ion, 25° C.",0.079
same,hydroxide dependence of hydrolysis,[1]; pH<7,independent of hydroxide ion concentrations
same,hydroxide dependence of hydrolysis,[1]; pH>8,hydroxide ion catalyzed
same,slope of log Kobsd vs pH,[1]; pH>8,0.8
same,phosphate among products,[2]; pH 6.5,92%
same,phosphorocyanidate among products,[2]; pH 6.5,8%
same,phosphate among products,[2]; pH 8.5,80%
same,phosphorocyanidate among products,[2]; pH 8.5,20%
same,"phosphoric acid and methyl phosphate, total","[2]; pH 8.5, 1:1 water:methanol",34%
same,formation of phosphorocyanidate,"[2]; pH 8.5, presence of Mg2+",not observed
same,hydrolysis rate in words,"[2]; pH 8.5, presence of Mg2+",faster
same,phosphate among products,"[2]; pH about 3, 52 hr",100%
same,degraded at 52 h,"[2]; water, pH 3, pH about 3, 52 hr, read-out: decomposition in H2O",< 4%
same,half-life,"[2]; water, pH 6.5",~30 h
same,half-life,"[2]; water, pH 8.5",~1 h
same,rate of release of p-nitrophenoxide vs. p-nitrophenyl acetate (times faster),[3]; 0.2 M MgCl2,40 ×
same,enhancement of hydrolysis rate by MgCl2 (factor),[3],2.5 (±0.1)
same,rate of release of p-nitrophenoxide vs. p-nitrophenyl acetate (times faster),"[3]; pH 8.5, 25° C., no Mg2+",20 ×
same,acceleration of p-nitrophenyl ester hydrolysis by (E)-oxime group,[3]; qualitative,several orders of magnitude
"COP(=O)(O)C(=NO)c1ccccc1 [methyl α-(hydroxyimino)benzylphosphonate anion, reference compound]",thermal stability,[4],thermally stable
"O=C(O)/C(=N\O)P(=O)(O)O [E-7, α-(hydroxyimino)phosphonoacetic acid]",phosphorylating activity,[5],active phosphorylating agent
"CC(=O)Oc1ccc([N+](=O)[O-])cc1 [p-nitrophenyl acetate, reference compound]",enhancement of hydrolysis rate by MgCl2 (factor),[3],not altered significantly
same,reaction order of hydrolysis,"[3]; pH 8.5, 25° C.",pseudo-first order
"O=C(Oc1ccc([N+](=O)[O-])cc1)/C(=N\O)P(=O)(O)O [E-19, Anilinium Salt of p-Nitrophenyl (E)-(Hydroxyimino)(dihydroxyphophinyl)acetate]",storage stability,"[2]; anilinium salt, storage",stable to storage
same,reaction order of hydrolysis,"[3]; pH 8.5, 25° C.",pseudo-first order
"COP(=O)(O)/C(=N/O)C(=O)O [E-8, (E)-(hydroxyimino)(hydroxymethoxyphosphinyl)acetic acid]",stability in water,"about pH 7, about 24 hours, room temperature",stable
same,methyl phosphate formed,pH 1.5,15%
same,methyl phosphorocyanidate formed,pH 1.5,85%
same,rate of E-8→Z-8→15 relative to dissociative fragmentation,pH 1.5,about 6 ×
same,decomposition,"pH 1.5, over 2.5 hours",quantitatively decomposed
same,reactivity,"pH 7, 25° C.",unreactive
